In patent US9227960B2, “Bisaryl (thio)morpholine derivatives as S1P modulators” (ABBVIE B.V., priority 2010, dated 2016):
Where a name gives a salt, the structure may show the parent alone.

Key:
[1] = target: T1, human S1P5 receptor (Homo sapiens, UniProt Q9H228); assay: In vitro functional activity (agonism) on human S1P5 receptors, CHO-human-S1P5-Aequorin assay; format: cell-based; conditions: CHO-human-S1P5-Aequorin cells, luminescence, read-out: S1P5 pEC50 (converted)
T1 construct: host or cells: CHO (AequoScreen recombinant cell line, co-expressing mitochondrially targeted apo-Aequorin)
Excerpt: In Vitro Functional Activity (Agonism) on Human S1P5 Receptors
(§1) The CHO-human-S1P5-Aecorin assay was bought from Euroscreen, Brussels (Euroscreen, Technical dossier, Human Lysophospholid S1P5 (Edg8) receptor, DNA clone and CHO AequoScreen™ recombinant cell-line, catalog no: ES-593-A, September 2006). Human-S1P5-Aequorin cells express mitochondrial targeted apo-Aequorin. Cells have to be loaded with coelanterazine, in order to reconstitute active Aequorin. After binding of agonists to the human S1P5 receptor the intracellular calcium concentration increases and binding of calcium to the apo-Aequorin/coelenterazine complex leads to an oxidation reaction of coelenterazine, which results in the production of apo-Aequorin, coelenteramide, CO2 and light (λmax 469 nm). This luminescent response is dependent on the agonist concentration. Luminescence is measured using the MicroBeta Jet (Perkin Elmer). Agonistic effects of compounds are expressed as pEC50. Compounds were tested at a 10 points half log concentration range, and 3 independent experiments were performed in single point's measurements.

[2] = target: T2, human S1P3 receptor (Homo sapiens, UniProt Q99500); assay: In vitro functional activity (agonism) on human S1P3 receptors, CHO-human-S1P3-Aequorin assay; format: cell-based; conditions: CHO/Gα16/AEQ/h-S1P3 cells, luminescence, read-out: S1P3 pEC50 (converted)
T2 construct: cell line established at Solvay Pharmaceuticals; host or cells: CHO K1 (CHO/Gα16/AEQ/h-S1P3)
Excerpt: In Vitro Functional Activity (Agonism) on Human S1P3 Receptors
The CHO-human-S1P3-Aeqorin assay (CHO/Gα16/AEQ/h-S1P3) was established at Solvay Pharmaceuticals. The plasmid DNA coding for the S1P3 receptor (accession number in GenBank NM_005226 was purchased from UMR cDNA resource Centre (Rolla, Mo.). The pcDNA3.1/hS1P3 construct carrying the mitochondrially targeted apo-Aeqorin and Gα16 protein was transfected in CHO K1 cell-line.
as §1, with “Human-S1P3-Aequorin” for “The CHO-human-S1P5-Aecorin assay was bought from Euroscreen, Brussels (Euroscreen, Technical dossier, Human Lysophospholid S1P5 (Edg8) receptor, DNA clone and CHO AequoScreen™ recombinant cell-line, catalog no: ES-593-A, September 2006). Human-S1P5-Aequorin”, “S1P3” for “S1P5”

[3] = target: T3, human S1P1 (Homo sapiens, UniProt P21453); assay: In vitro functional activity (agonism) on human S1P1 receptors, CHO-K1-Human S1P1-c-AMP assay; format: cell-based; conditions: CHO-K1 cells expressing human S1P1, cAMP with Forskolin (HTRF), read-out: S1P1 pEC50 (converted)
T3 construct: host or cells: CHO-K1
Protocol: In Vitro Functional Activity (Agonism) on Human S1P1 Receptors
The CHO-K1-Human S1P1-c-AMP assay was performed at Euroscreenfast, Brussels (Euroscreen, Human S1P1 coupling […] (Edg1) receptor, catalog no: FAST-0197C, December 2009).
Recombinant CHO-K1 cells expressing human S1P1, grown to mid-log Phase in culture media without antibiotics, detached, centrifuged and re-suspended. For agonist testing cells are mixed with compound and Forskolin and incubated at room temperature. Cells are lyses and cAMP concentration are estimated, according to the manufacturer specification, With the HTRF kit from CIS-BIO International (cat n° 62AM2PEB).
Agonistic effects of compounds are expressed as a percentage of the activity of the reference compound at its EC100 concentration, EC50 is calculated and results are reported as pEC50. Compounds were tested at a 10 points half log concentration range duplicated in 1 experiment.

T2 sequence (Q99500 whole entry): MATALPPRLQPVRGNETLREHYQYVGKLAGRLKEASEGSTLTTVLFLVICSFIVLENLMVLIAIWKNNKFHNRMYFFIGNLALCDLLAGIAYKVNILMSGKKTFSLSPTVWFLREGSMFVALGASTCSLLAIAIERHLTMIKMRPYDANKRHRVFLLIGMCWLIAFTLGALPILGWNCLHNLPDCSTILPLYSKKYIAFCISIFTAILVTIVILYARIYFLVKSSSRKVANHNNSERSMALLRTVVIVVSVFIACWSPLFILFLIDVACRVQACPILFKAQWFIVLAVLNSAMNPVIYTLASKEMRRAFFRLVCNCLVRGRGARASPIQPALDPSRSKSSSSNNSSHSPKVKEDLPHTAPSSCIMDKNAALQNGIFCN
T1 sequence (Q9H228 whole entry): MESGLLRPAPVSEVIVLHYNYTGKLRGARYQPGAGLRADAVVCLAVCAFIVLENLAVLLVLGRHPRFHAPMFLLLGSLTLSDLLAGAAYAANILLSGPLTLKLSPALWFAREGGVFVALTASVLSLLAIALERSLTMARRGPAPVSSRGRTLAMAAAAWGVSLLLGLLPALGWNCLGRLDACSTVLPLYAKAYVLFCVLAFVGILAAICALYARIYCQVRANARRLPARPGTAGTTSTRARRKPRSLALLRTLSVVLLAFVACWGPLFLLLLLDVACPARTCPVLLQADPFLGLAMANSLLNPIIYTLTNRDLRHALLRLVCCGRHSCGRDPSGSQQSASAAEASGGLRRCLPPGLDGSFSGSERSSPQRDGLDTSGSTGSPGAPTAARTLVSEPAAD
T3 sequence (P21453 whole entry): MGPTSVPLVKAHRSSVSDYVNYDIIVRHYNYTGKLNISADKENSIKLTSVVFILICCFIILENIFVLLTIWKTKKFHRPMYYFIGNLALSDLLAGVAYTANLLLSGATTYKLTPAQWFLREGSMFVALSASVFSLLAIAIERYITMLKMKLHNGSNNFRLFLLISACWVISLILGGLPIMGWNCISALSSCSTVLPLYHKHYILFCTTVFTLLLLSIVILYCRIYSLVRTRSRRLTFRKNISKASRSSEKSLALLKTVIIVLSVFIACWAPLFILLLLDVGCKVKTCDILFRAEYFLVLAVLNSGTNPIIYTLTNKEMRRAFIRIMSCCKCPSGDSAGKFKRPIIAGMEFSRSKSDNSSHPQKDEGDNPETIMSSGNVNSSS

Compound: Cc1ccc(Oc2ccc(C3CN(CCC(=O)O)CCO3)cc2)cc1Cl (centres unmarked) [Compound 15, 3-{2-[4-(3-Chloro-4-methyl-phenoxy)-phenyl]-morpholin-4-yl}-propionic acid hydrochloride]
- EC50 [1]: 501 nM
- EC50 [2]: > 10000 nM

Compound: O=C(O)CCN1CCOC(c2ccc(Oc3ccc(OCc4ccccc4)cc3)cc2)C1 (centres unmarked) [Compound 57, 3-{2-[4-(4-Benzyloxy-phenoxy)-phenyl]-morpholin-4-yl}-propionic acid hydrochloride]
- EC50 [1]: 2000 nM
- EC50 [2]: > 10000 nM

Compound: CC1(C)CN(CCC(=O)O)CC(c2ccc(Oc3c(Cl)cccc3Cl)cc2)O1 (centres unmarked) [Compound 73, 3-{6-[4-(2,6-Dichloro-phenoxy)-phenyl]-2,2-dimethyl-morpholin-4-yl}-propionic acid]
- EC50 [1]: 158 nM
- EC50 [3]: > 3160 nM

Compound: Cc1cccc(Oc2ccc(C3CN(CCCC(=O)O)CCO3)cc2)c1C (centres unmarked) [Compound 87, 4-{2-[4-(2,3-Dimethyl-phenoxy)-phenyl]-morpholin-4-yl}-butyric acid hydrochloride]
- EC50 [1]: 1000 nM

Compound: Cc1cccc(Oc2ccc(C3(C)CN(CCC(=O)O)CCO3)cc2)c1C (centres unmarked) [Compound 80, 3-{2-[4-(2,3-Dimethyl-phenoxy)-phenyl]-2-methyl-morpholin-4-yl}-propionic acid hydrochloride]
- EC50 [1]: 631 nM
- EC50 [3]: > 31600 nM
- EC50 [2]: > 10000 nM

Compound: CCCCc1ccc(Oc2ccc(C3CN(CCC(=O)O)CCO3)cc2)cc1 (centres unmarked) [Compound 26, 3-{2-[4-(4-Butyl-phenoxy)-phenyl]-morpholin-4-yl}-propionic acid hydrochloride]
- EC50 [1]: 2000 nM
- EC50 [2]: 5010 nM

Compound: O=C(O)CCN1CCOC(c2ccc(Oc3ccc4ccccc4c3)cc2)C1 (centres unmarked) [Compound 68, 3-{2-[4-(Naphthalen-2-yloxy)-phenyl]-morpholin-4-yl}-propionic acid hydrochloride]
- EC50 [1]: 631 nM
- EC50 [2]: > 10000 nM

Compound: Cl.O=C(O)CCN1CCSC(c2ccc(Oc3ccccc3Cl)cc2)C1 (centres unmarked)
- melting point: 155 to 160 °C

Compound: Cc1cccc(C)c1Nc1ccc(C2CN(CCC(=O)O)CCO2)cc1 (centres unmarked) [Compound 2, 3-{2-[4-(2,6-Dimethyl-phenylamino)-phenyl]-morpholin-4-yl}-propionic acid hydrochloride]
- EC50 [1]: 631 nM
- EC50 [2]: > 10000 nM

Compound: Cc1cccc(Oc2ccc(C3CN(CCCC(=O)O)CCO3)cc2)c1C (centres unmarked) (as salt: hydrochloride) [Compound 87, 4-{2-[4-(2,3-Dimethyl-phenoxy)-phenyl]-morpholin-4-yl}-butyric acid hydrochloride]
- melting point: 225 to 227 °C

Compound: Cl.O=C(O)CCN1CCOC(c2ccc(Oc3c(Cl)cccc3Cl)c(Cl)c2)C1 (centres unmarked)
- melting point: 224 to 227 °C

Compound: Cl.O=C(O)CCN1CCOC(c2ccc(Oc3c(Cl)cccc3Cl)cc2F)C1 (centres unmarked)
- melting point: 207 to 209 °C

Compound: O=C(O)CCN1CCOC(c2ccc(C(=O)c3c(Cl)cccc3Cl)cc2)C1 (centres unmarked) [Compound 6, 3-{2-[4-(2,6-Dichloro-benzoyl)-phenyl]-morpholin-4-yl}-propionic acid hydrochloride]
- EC50 [1]: 501 nM
- EC50 [3]: > 3160 nM
- EC50 [2]: > 10000 nM

Compound: Cc1cccc(C)c1Oc1cccc(C2CN(CCC(=O)O)CCO2)c1 (centres unmarked) (as salt: hydrochloride)
- melting point: 219 to 223 °C

Compound: O=C(O)CCN1CCOC(c2ccc(Oc3cccc4ccccc34)cc2)C1 (centres unmarked) [Compound 29, 3-{2-[4-(Naphthalen-1-yloxy)-phenyl]-morpholin-4-yl}-propionic acid hydrochloride]
- EC50 [1]: 63.1 nM
- EC50 [2]: > 10000 nM

Compound: Cc1cccc(Cl)c1Oc1ccc(C2CN(CCC(=O)O)CCS2)cc1.Cl (centres unmarked)
- melting point: 192.5 to 195 °C

Compound: Cl.O=C(O)CCN1CCOC(c2ccc(Oc3c(Cl)cccc3Cl)cc2C(F)(F)F)C1 (centres unmarked)
- melting point: 135 to 136 °C

Compound: O=C(O)CCN1CCOC(c2ccc(Oc3ccccc3C(F)(F)F)cc2)C1 (centres unmarked) [Compound 35, 3-{2-[4-(2-Trifluoromethyl-phenoxy)-phenyl]-morpholin-4-yl}-propionic acid hydrochloride]
- EC50 [1]: 200 nM
- EC50 [2]: > 10000 nM

Compound: Cc1cccc(Oc2ccc(C3CN(CCC(=O)O)CCS3)cc2)c1C.Cl (centres unmarked)
- melting point: 178 to 183 °C

Compound: Cc1ccc(Oc2ccc(C3CN(CCC(=O)O)CCO3)cc2)cc1 (centres unmarked) [Compound 64, 3-[2-(4-p-Tolyloxy-phenyl)-morpholin-4-yl]-propionic acid hydrochloride]
- EC50 [1]: 1580 nM
- EC50 [2]: > 10000 nM

Compound: Cc1ccc(Oc2ccc(C3CN(CCC(=O)O)CCO3)cc2)cc1C (centres unmarked) [Compound 47, 3-{2-[4-(3,4-Dimethyl-phenoxy)-phenyl]-morpholin-4-yl}-propionic acid hydrochloride]
- EC50 [1]: 200 nM
- EC50 [2]: > 10000 nM
